Columns and labels:
Experiment in all cases: Kinase panel (Dundee profiling)
Format in all cases: biochemical
Settings in all cases: read-out: % residual kinase activity
[1] = target: ROCK2 (Rattus norvegicus, UniProt Q62868)
How it was run: (§1)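 Each recombinant kinase of a 140-member panel was assayed radioisotopically in the presence of compound at 1 or 10 μM, and activity was expressed as percent remaining versus DMSO control (n=3, mean±SEM).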

[2] = target: MST3 (Homo sapiens, UniProt Q9Y6E0)
How it was run: as §1

[3] = target: Aurora B (Homo sapiens, UniProt Q96GD4)
How it was run: as §1

[4] = target: PKCγ (Homo sapiens, UniProt P05129)
How it was run: as §1

[5] = target: HER4 (Homo sapiens, UniProt Q15303)
How it was run: as §1

[6] = target: IRR (Homo sapiens, UniProt P14616)
Chain of IRR (P14616 27-1297, species assumed): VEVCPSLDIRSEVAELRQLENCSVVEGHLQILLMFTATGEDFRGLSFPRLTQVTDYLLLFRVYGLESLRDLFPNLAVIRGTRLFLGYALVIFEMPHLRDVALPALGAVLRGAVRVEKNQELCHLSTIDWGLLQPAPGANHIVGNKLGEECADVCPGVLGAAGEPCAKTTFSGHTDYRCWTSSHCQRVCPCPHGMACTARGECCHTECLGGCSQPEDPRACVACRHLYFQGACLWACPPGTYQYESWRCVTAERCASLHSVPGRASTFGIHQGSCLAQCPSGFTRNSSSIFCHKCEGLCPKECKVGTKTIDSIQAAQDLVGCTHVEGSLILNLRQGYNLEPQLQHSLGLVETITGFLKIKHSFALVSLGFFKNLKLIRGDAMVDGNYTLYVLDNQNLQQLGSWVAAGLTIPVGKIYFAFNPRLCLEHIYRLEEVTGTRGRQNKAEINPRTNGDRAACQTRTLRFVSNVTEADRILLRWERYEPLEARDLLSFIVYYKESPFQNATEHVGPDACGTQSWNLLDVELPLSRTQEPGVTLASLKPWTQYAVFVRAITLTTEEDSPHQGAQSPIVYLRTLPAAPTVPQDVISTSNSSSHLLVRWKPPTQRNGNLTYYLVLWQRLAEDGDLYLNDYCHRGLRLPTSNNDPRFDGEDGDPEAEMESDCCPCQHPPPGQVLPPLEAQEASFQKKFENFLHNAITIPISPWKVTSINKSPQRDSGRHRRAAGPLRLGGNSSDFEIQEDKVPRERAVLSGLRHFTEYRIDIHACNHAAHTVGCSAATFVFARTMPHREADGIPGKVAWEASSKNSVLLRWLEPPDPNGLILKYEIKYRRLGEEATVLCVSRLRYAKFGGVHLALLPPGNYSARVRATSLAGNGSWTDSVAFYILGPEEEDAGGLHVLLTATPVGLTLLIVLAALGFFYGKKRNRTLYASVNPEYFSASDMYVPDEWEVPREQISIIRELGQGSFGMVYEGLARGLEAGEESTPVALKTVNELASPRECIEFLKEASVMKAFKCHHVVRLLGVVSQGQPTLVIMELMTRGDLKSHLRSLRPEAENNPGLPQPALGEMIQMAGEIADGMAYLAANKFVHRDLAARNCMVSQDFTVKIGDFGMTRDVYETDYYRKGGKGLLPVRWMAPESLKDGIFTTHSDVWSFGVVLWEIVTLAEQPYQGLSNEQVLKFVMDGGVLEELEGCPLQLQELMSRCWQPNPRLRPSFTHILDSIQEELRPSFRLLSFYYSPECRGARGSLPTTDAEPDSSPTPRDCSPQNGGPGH
How it was run: as §1

[7] = target: CLK2 (Homo sapiens, UniProt P49760)
How it was run: as §1

[8] = target: SmMLCK (Homo sapiens, UniProt Q15746)
How it was run: as §1

[9] = target: ERK2 (Homo sapiens, UniProt P28482)
Chain of ERK2 (P28482 whole entry, species assumed): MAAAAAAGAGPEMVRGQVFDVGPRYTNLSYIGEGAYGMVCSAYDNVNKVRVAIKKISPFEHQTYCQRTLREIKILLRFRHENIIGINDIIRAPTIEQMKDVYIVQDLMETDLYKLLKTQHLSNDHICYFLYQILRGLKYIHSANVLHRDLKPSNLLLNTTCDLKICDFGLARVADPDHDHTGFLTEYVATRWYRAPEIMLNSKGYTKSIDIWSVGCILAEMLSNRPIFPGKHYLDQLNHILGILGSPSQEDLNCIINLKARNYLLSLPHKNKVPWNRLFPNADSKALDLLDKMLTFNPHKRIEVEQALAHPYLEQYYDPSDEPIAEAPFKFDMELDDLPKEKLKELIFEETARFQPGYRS
How it was run: as §1

[10] = target: MARK2 (Homo sapiens, UniProt Q7KZI7)
How it was run: as §1

[11] = target: JNK3 (Homo sapiens, UniProt P53779)
How it was run: as §1

[12] = target: GSK3b (Homo sapiens, UniProt P49841)
How it was run: as §1

[13] = target: IRAK1 (Homo sapiens, UniProt P51617)
How it was run: as §1

[14] = target: NEK2a (Homo sapiens, UniProt P51955)
How it was run: as §1

[15] = target: MAP4K5 (Homo sapiens, UniProt Q9Y4K4)
How it was run: as §1

[16] = target: MST2 (Homo sapiens, UniProt Q13188)
How it was run: as §1

[17] = target: LKB1 (Homo sapiens, UniProt Q15831)
How it was run: as §1

[18] = target: TLK1 (Homo sapiens, UniProt Q9UKI8)
How it was run: as §1

[19] = target: CK1δ (Homo sapiens, UniProt P48730)
Chain of CK1δ (P48730 whole entry): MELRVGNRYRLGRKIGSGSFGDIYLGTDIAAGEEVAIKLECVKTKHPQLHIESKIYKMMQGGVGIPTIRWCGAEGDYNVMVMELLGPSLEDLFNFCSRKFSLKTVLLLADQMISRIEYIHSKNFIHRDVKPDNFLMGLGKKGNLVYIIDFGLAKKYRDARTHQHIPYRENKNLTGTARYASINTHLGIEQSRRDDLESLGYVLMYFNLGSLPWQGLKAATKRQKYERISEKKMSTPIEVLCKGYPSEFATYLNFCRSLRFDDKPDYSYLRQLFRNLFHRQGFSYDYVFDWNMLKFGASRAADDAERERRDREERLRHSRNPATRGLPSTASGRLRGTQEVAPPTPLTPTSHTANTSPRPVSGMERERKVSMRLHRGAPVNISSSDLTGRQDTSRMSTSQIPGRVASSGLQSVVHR
How it was run: as §1

[20] = target: SIK2 (Homo sapiens, UniProt Q9H0K1)
How it was run: as §1

[21] = target: PLK1 (Homo sapiens, UniProt P53350)
Chain of PLK1 (P53350 whole entry, species assumed): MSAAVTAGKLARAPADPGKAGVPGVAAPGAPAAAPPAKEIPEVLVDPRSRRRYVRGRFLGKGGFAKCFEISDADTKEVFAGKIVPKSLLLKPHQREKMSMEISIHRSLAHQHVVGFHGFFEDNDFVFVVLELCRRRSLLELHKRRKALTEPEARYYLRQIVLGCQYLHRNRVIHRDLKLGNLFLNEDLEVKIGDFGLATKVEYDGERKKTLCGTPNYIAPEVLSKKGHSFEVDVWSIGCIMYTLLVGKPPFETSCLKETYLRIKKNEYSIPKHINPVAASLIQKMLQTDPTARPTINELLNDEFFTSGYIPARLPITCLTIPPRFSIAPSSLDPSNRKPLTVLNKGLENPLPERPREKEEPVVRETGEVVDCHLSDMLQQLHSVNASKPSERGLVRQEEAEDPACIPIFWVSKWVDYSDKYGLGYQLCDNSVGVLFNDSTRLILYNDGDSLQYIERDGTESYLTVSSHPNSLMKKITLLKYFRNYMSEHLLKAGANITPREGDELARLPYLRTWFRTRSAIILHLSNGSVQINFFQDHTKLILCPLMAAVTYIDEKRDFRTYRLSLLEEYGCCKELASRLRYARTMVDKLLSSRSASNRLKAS
How it was run: as §1

[22] = target: EIF2AK3 (Homo sapiens, UniProt Q9NZJ5)
Chain of EIF2AK3 (Q9NZJ5 30-1116, species assumed): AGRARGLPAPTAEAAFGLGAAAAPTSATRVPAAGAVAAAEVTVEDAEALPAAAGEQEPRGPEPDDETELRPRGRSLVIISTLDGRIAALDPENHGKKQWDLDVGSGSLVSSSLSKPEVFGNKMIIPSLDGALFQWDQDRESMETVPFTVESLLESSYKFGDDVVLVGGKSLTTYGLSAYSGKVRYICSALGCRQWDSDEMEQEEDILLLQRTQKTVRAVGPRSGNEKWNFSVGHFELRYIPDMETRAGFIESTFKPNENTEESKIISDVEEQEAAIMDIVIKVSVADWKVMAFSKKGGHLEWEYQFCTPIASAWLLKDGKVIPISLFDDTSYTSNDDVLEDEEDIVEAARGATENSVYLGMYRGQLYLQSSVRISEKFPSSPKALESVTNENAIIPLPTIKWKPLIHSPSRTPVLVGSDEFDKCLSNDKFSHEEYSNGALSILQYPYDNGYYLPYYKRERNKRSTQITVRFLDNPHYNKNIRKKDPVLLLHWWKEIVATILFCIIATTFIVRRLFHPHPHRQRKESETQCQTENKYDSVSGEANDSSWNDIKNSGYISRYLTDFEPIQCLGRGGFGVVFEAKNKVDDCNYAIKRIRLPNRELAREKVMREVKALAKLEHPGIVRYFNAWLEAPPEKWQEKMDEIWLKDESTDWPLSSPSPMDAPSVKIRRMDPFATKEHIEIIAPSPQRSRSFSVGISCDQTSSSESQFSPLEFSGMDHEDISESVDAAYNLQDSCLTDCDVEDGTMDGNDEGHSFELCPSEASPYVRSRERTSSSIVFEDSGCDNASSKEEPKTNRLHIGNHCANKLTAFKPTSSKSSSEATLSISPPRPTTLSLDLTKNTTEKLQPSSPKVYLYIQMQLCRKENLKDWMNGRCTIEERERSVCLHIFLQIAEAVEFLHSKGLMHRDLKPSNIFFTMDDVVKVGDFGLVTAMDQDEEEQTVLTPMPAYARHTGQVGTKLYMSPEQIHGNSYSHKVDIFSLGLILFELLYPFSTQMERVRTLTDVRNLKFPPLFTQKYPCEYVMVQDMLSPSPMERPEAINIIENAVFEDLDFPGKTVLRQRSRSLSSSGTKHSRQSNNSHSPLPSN
How it was run: as §1

[23] = target: CK2 (Homo sapiens, UniProt P68400)
How it was run: as §1

[24] = target: BRSK2 (Homo sapiens, UniProt Q8IWQ3)
How it was run: as §1

[25] = target: RSK2 (Homo sapiens, UniProt P51812)
How it was run: as §1

[26] = target: ERK1 (Homo sapiens, UniProt P27361)
How it was run: as §1

[27] = target: PIM3 (Homo sapiens, UniProt Q86V86)
How it was run: as §1

[28] = target: EPH-B2 (Homo sapiens, UniProt P29323)
How it was run: as §1

[29] = target: PKBa (Homo sapiens, UniProt P31749, S473D)
How it was run: as §1

[30] = target: ULK1 (Homo sapiens, UniProt O75385)
How it was run: as §1

[31] = target: ZAP70 (Homo sapiens, UniProt P43403)
How it was run: as §1

[32] = target: PKCa (Homo sapiens, UniProt P17252)
How it was run: as §1

Chain of ROCK2 (Q62868 2-543 limits assumed): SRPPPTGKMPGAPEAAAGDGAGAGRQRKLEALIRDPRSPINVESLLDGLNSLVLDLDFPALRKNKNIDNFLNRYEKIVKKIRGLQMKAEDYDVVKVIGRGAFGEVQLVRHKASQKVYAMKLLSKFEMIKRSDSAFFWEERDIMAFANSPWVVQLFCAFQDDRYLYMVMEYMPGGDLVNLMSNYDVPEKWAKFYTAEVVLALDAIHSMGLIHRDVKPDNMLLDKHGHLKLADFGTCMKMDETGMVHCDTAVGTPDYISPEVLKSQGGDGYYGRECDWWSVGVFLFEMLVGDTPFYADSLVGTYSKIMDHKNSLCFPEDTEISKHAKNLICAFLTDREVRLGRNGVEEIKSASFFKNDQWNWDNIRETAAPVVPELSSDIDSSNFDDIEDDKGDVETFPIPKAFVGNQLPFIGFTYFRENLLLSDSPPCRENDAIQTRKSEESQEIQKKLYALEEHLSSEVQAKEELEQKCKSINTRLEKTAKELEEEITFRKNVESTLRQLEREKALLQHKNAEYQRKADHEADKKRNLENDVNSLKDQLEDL

Cc1cc(C(C#N)c2ccc(Cl)cc2)c(Cl)cc1NC(=O)c1cc(Cl)ccc1O (stereo not shown) [ZT-1a, 5-chloro-N-(5-chloro-4-((4-chlorophenyl)(cyano)methyl)-2-methylphenyl)-2-hydroxy-benzamide]
remaining activity at 1 µM ([1]; 1 μM): 109 ± 6% | remaining activity at 10 µM ([1]; 10 μM): 101 ± 10% | remaining activity at 1 µM ([2]; 1 μM): 109 ± 8% | remaining activity at 10 µM ([2]; 10 μM): 113 ± 15% | remaining activity at 1 µM ([3]; 1 μM): 119 ± 6% | remaining activity at 10 µM ([3]; 10 μM): 92 ± 15% | remaining activity at 1 µM ([4]; 1 μM): 133 ± 11% | remaining activity at 10 µM ([4]; 10 μM): 120 ± 8% | remaining activity at 1 µM ([5]; 1 μM): 85 ± 8% | remaining activity at 10 µM ([5]; 10 μM): 84 ± 1% | remaining activity at 1 µM ([6]; 1 μM): 105 ± 5% | remaining activity at 10 µM ([6]; 10 μM): 95 ± 4% | remaining activity at 1 µM ([7]; 1 μM): 68 ± 12% | remaining activity at 10 µM ([7]; 10 μM): 33 ± 45% | remaining activity at 1 µM ([8]; 1 μM): 99 ± 3% | remaining activity at 10 µM ([8]; 10 μM): 98 ± 9% | remaining activity at 1 µM ([9]; 1 μM): 111 ± 25% | remaining activity at 10 µM ([9]; 10 μM): 75 ± 3% | remaining activity at 1 µM ([10]; 1 μM): 103 ± 8% | remaining activity at 10 µM ([10]; 10 μM): 89 ± 15% | remaining activity at 1 µM ([11]; 1 μM): 63 ± 15% | remaining activity at 10 µM ([11]; 10 μM): 60 ± 10% | remaining activity at 1 µM ([12]; 1 μM): 39 ± 4% | remaining activity at 10 µM ([12]; 10 μM): 38 ± 12% | remaining activity at 1 µM ([13]; 1 μM): 128 ± 2% | remaining activity at 10 µM ([13]; 10 μM): 95 ± 7% | remaining activity at 1 µM ([14]; 1 μM): 85 ± 12% | remaining activity at 10 µM ([14]; 10 μM): 91 ± 6% | remaining activity at 1 µM ([15]; 1 μM): 95 ± 28% | remaining activity at 10 µM ([15]; 10 μM): 76 ± 9% | remaining activity at 1 µM ([16]; 1 μM): 115 ± 4% | remaining activity at 10 µM ([16]; 10 μM): 113 ± 2% | remaining activity at 1 µM ([17]; 1 μM): 107 ± 8% | remaining activity at 10 µM ([17]; 10 μM): 115 ± 11% | remaining activity at 1 µM ([18]; 1 μM): 130 ± 13% | remaining activity at 10 µM ([18]; 10 μM): 124 ± 4% | remaining activity at 1 µM ([19]; 1 μM): 116 ± 5% | remaining activity at 10 µM ([19]; 10 μM): 114 ± 9% | remaining activity at 1 µM ([20]; 1 μM): 105 ± 16% | remaining activity at 10 µM ([20]; 10 μM): 76 ± 8% | remaining activity at 1 µM ([21]; 1 μM): 72 ± 1% | remaining activity at 10 µM ([21]; 10 μM): 93 ± 21% | remaining activity at 1 µM ([22]; 1 μM): 114 ± 2% | remaining activity at 10 µM ([22]; 10 μM): 100 ± 3% | remaining activity at 1 µM ([23]; 1 μM): 72 ± 15% | remaining activity at 10 µM ([23]; 10 μM): 59 ± 16% | remaining activity at 1 µM ([24]; 1 μM): 115 ± 14% | remaining activity at 10 µM ([24]; 10 μM): 104% | remaining activity at 1 µM ([25]; 1 μM): 116 ± 5% | remaining activity at 10 µM ([25]; 10 μM): 101 ± 3% | remaining activity at 1 µM ([26]; 1 μM): 107 ± 16% | remaining activity at 10 µM ([26]; 10 μM): 109 ± 18% | remaining activity at 1 µM ([27]; 1 μM): 115 ± 12% | remaining activity at 10 µM ([27]; 10 μM): 99 ± 2% | remaining activity at 1 µM ([28]; 1 μM): 77 ± 2% | remaining activity at 10 µM ([28]; 10 μM): 81 ± 8% | remaining activity at 1 µM ([29]; 1 μM): 104 ± 1% | remaining activity at 10 µM ([29]; 10 μM): 91 ± 4% | remaining activity at 1 µM ([30]; 1 μM): 87 ± 10% | remaining activity at 10 µM ([30]; 10 μM): 89 ± 13% | remaining activity at 1 µM ([31]; 1 μM): 120 ± 1% | remaining activity at 10 µM ([31]; 10 μM): 97 ± 9% | remaining activity at 1 µM ([32]; 1 μM): 97 ± 4% | remaining activity at 10 µM ([32]; 10 μM): 83 ± 2%
